# Tests used:
# [1] = Gelation ability in water and organic solvents (inverted tube, visual); assay type: physicochemical; details: for gel formation: highly polar solvents like water, methanol, and non-polar solvents like nonane, benzene, toluene
# Procedure: Typically, a gelator (0.01-2 mg) in a required solvent (0.1-1 mL) was heated until the solid was completely dissolved. The resulting solution was slowly allowed to cool to room temperature and gelation was visually observed. […] All gels obtained were thermally reversible. Above their gelation temperature, the gels dissolved in water but could be returned to their original gel state upon cooling.
# Typically, the gelator (0.01-2 mg) and required solvent (0.1-1 mL) were placed into a 2 mL scintillation vial, which was then sealed with a screw cap. The vial was heated and shook until the solid was completely dissolved. The solution was set aside and allowed to cool to room temperature. Gelation was considered to have occurred when no gravitational flow in the inverted tube was observed.
# [2] = target: T1, hydrolase enzyme (Lipolase 100L, Type EX) (Thermomyces lanuginosus, UniProt O59952); experiment: Enzyme-triggered gel degradation and curcumin release from hydrogel, monitored by UV absorption; details: for curcumin release: room temperature
# T1 construct: purchased Lipolase 100L, Type EX
# T1 sequence (O59952 23-291): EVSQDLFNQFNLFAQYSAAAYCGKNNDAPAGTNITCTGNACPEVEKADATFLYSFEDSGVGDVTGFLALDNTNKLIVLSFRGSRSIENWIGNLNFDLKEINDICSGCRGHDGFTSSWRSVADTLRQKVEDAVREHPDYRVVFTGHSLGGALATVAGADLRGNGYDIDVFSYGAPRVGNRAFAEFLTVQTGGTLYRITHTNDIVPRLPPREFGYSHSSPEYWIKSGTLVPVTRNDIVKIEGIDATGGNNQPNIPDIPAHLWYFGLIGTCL
# Procedure: Solubilization of hydrophobic drugs and developing suitable drug delivery systems is a challenging task in drug discovery research.^18 A conceptual approach of single-step enzyme-triggered drug delivery at physiological conditions was performed where a hydrophobic drug molecule was encapsulated—solubilized without chemical modification—in a hydrogel and subsequent release of the drug by breaking the gel by using hydrolase enzyme (Lipolase 100L, Type EX). […] Drug release was monitored by absorbance spectra of the drug. Control of the drug release rate was achieved by manipulating the enzyme concentration and/or temperature. The by-products formed after the gel degradation were characterized and the cleavage site of the gelator by enzyme was determined. Gel degradation occurred due to the cleavage of the ester bond in the gelator by the hydrolase enzyme. ^18Miyata, T., Uragami, T. & Nakamae, K. Biomolecule-sensitive hydrogel. Adv. Drug Delivery Rev. 54, 79-98 (2002).
# (§1) The release of curcumin into the solution in the presence of enzyme was monitored by measuring the curcumin UV-absorption spectrum. The absorption spectrum recorded in aqueous gel solution was compared with the curcumin spectra recorded in methanol. […] To test this hypothesis, water was added to the preformed gel and left for 12 hrs. The UV-absorption of the supernatant was recorded. […] XXVII. Cyclodextrin complexation: solubility, chemical and photochemical stability. Int. J. Pharm. 244, 127-135 (2002).
# First, 0.5 mL of lipase—Lipolase 100L, Type EX, lipase units 100 KLU/g—was added to the preformed gel and kept at 37° C.—far lower than gel melting temperature. […] This was confirmed by spectroscopic experiments. Aliquots were collected after addition of an enzyme to the hydrogel after 10 min and 12 hrs and absorbance spectrum were recorded.
# To find out the role of the enzyme on hydrogel degradation, similar experiments were carried out by adding only water without an enzyme. As expected, the curcumin-encapsulated gel was still intact after incubating for a few days at 37° C. There was no visual change in the gel volume and in the added solution. […] To this, 0.5 mL of lipolase was added and incubated at 37° C.
# To obtain control on the rate of release, the role of enzyme concentration and temperature on gel degradation or controlled drug release was investigated. In a first set of experiments, the temperature was changed while keeping enzyme concentration constant. After addition of the enzyme to the preformed gel, the vial was kept at room temperature for two days, and as explained previously, curcumin release was monitored by absorption spectra.
# In a second set of experiments, the enzyme concentration was changed while keeping the temperature constant. […] At room temperature, even after several days, there was no release. Then the vial was placed at 37° C. in incubation and took 300 min to start the drug release, which eventually took 4,320 min to release completely. In addition to this, a similar low enzyme concentrated vial was directly incubated at 45° C.
# It is important to characterize the products/compounds formed after gel degradation. […] Upon gel degradation, a white fluffy solid was produced, which is not soluble in water, and thus settled down in the vial. The solid was isolated and characterized by ^1H-NMR, and it matched with the NMR of pure stearic acid. See FIG. 12, which is a comparison of the ^1H-NMR spectra of commercially available stearic acid and the white fluffy solid obtained after gel degradation, which was filtered, freeze-dried, and NMR recorded in Chloroform.
# [3] = Solubilization (encapsulation) of curcumin in hydrogel; assay type: physicochemical; details: 0.5 wt % hydrogel of derivative 3, aqueous with cosolvent or surfactant or cyclodextrin
# Procedure: as §1
Compound,gel formation [1],Minimum gelation concentration (MGC) ([1]; in benzene),Minimum gelation concentration (MGC) ([1]; in water),"number of solvents gelled ([1]; ten solvents tested (water, polar and nonpolar organic solvents))","gel degradation ([2]; hydrogel of derivative 3 without curcumin, 0.5 mL lipolase, 37° C., after 12 hrs)","site of gelator cleavage by enzyme (TLC, 1H-NMR of products) ([2]; products after gel degradation: amygdalin, stearic acid)",solubility [3],"time to complete curcumin release ([2]; lipase 100 KLU/g, 37° C.)","time to start of curcumin release ([2]; lipase 100 KLU/g, 37° C.)","time to complete curcumin release ([2]; lipase 100 KLU/g, 45° C.)","time to start of curcumin release ([2]; lipase 100 KLU/g, 45° C.)","curcumin release ([2]; lipase 100 KLU/g, two days)","time to complete curcumin release ([2]; lipolase 10 KLU/g, 37° C.)","time to start of curcumin release ([2]; lipolase 10 KLU/g, 37° C.)","time to complete curcumin release ([2]; lipolase 10 KLU/g, 45° C.)","time to start of curcumin release ([2]; lipolase 10 KLU/g, 45° C.)","curcumin release ([2]; lipolase 10 KLU/g, several days)","curcumin in supernatant (UV absorption) ([2]; water added to preformed gel of derivative 3, left 12 hrs, no enzyme)"
Amygdalin Octadecanoate [derivative 3],formed gels,0.2 wt %,0.05 wt %,all ten solvents,degraded completely,cleaving the ester bond,–,–,–,–,–,–,–,–,–,–,–,–
COc1cc(/C=C/C(=O)CC(=O)/C=C/c2ccc(O)c(OC)c2)ccc1O [curcumin],–,–,–,–,–,–,1000 µM,≤ 720 min,120 min,270 min,≤ 30 min,no release,"4,320 min",300 min,"2,880 min",180 min,no release,Absence of any absorbance peak
Amygdalin Tetradecanoate [derivative 2],formed gels,–,–,–,–,–,–,–,–,–,–,–,–,–,–,–,–,–

# From patent publication US8968784B2, “Method for preparing hydro/organo gelators from disaccharide sugars by biocatalysis and their use in enzyme-triggered drug delivery” (Research Foundation of the City University of New York, priority 2006, dated 2015)
